According to patent US20240279201A1, “DUAL WNT SIGNALING PATHWAY INHIBITORS AND AMPK ACTIVATORS FOR TREATMENTS OF DISEASE” (priority 2021, published 2024):

What was measured:
[1] = test system: Wnt/β-Catenin signaling pathway; experiment: Wnt signaling luciferase (TOPflash) reporter gene assay; type: cell-based; details: for IC50: luciferase reporter gene assay, mean of three independent experiments, read-out: IC50 (nM) to inhibit the Wnt signaling activity
From the text: A dual-luciferase gene reporter assay was used to test inhibitory activities of new compounds on Wnt signaling. […] Therefore, the effects of new compounds on AMPK was examined. […]

[2] = Cytotoxicity (CC50) during the luciferase gene reporter assay; type: cell-based; details: human, HEK293 cells; short treatment duration of the luciferase gene reporter assay

Structure (SMILES) | IC50 [1] [nM] | CC50 [2] [nM] | inhibition at 1 µM [1] [%]
Cc1c(C(=O)Nc2nc3ccc(F)cc3s2)nnn1-c1ccccc1F [YA4155, N-(6-Fluorobenzo[d]thiazol-2-yl)-1-(2-fluorophenyl)-5-methyl-1H-1,2,3-triazole-4-carboxamide] | 0.4 | > 92000 | 96
Cc1ccccc1-n1nnc(C(=O)Nc2nc3c(Cl)cccc3s2)c1C [YA4095, N-(4-Chlorobenzo[d]thiazol-2-yl)-5-methyl-1-(o-tolyl)-1H-1,2,3-triazole-4-carboxamide] | > 1000 | > 92000 | 8
CCc1ccccc1-n1ncc(C(=O)Nc2nc3ccccc3s2)c1C [YA4009, N-(Benzo[d]thiazol-2-yl)-1-(2-ethylphenyl)-5-methyl-1H-pyrazole-4-carboxamide] | 6.7 | > 92000 | 
Cc1c(C(=O)Nc2nc3ccccc3s2)nnn1-c1ccccc1OC(F)(F)F [YA1038, N-(Benzo[d]thiazol-2-yl)-5-methyl-1-(2-(trifluoromethoxy)phenyl)-1H-1,2,3-triazole-4-carboxamide] | > 1000 | > 92000 | 37
Cc1c(C(=O)Nc2nc3ccccc3s2)nnn1-c1cccc(Br)c1 [YA1050, N-(Benzo[d]thiazol-2-yl)-1-(3-bromophenyl)-5-methyl-1H-1,2,3-triazole-4-carboxamide] | > 1000 | > 92000 | 7
Cc1ccccc1-n1nnc(C(=O)Nc2nc3c(F)cccc3s2)c1C [YA4093, N-(4-Fluorobenzo[d]thiazol-2-yl)-5-methyl-1-(o-tolyl)-1H-1,2,3-triazole-4-carboxamide] | > 1000 | > 92000 | 37
Cc1c(C(=O)Nc2nc3ccccc3s2)cnn1-c1ccccc1 [YA4011, N-(Benzo[d]thiazol-2-yl)-5-methyl-1-phenyl-1H-pyrazole-4-carboxamide] | 8.2 | > 92000 | 
Cc1ccc(-n2nnc(C(=O)Nc3nc4ccccc4s3)c2C)c(C)c1 [YA4039] | 17 | > 92000 | 88
Cc1ccccc1-n1nnc(C(=O)Nc2nc3cc(Br)ccc3s2)c1C [YA4047, N-(5-Bromobenzo[d]thiazol-2-yl)-5-methyl-1-(o-tolyl)-1H-1,2,3-triazole-4-carboxamide] | > 1000 | > 92000 | 14
Cc1ccccc1-n1nnc(C(=O)Nc2nc(-c3ccccc3Br)cs2)c1C [YA4135] | > 1000 | > 92000 | 
Cc1c(C(=O)Nc2nc3ccccc3s2)cnn1-c1ccccc1F [YA4007, N-(Benzo[d]thiazol-2-yl)-1-(2-fluorophenyl)-5-methyl-1H-pyrazole-4-carboxamide] | 1.3 | > 92000 | 
O=C(Nc1cnc2ccccc2n1)c1nnn(-c2ccccc2)n1 [YA6177, 2-Phenyl-N-(quinoxalin-2-yl)-2H-tetrazole-5-carboxamide] | > 1000 | > 92000 | 
Cc1ccccc1-n1nnc(C(=O)Nc2ccc3ncccc3n2)c1C [YA6147, 5-Methyl-N-(1,5-naphthyridin-2-yl)-1-(o-tolyl)-1H-1,2,3-triazole-4-carboxamide] | > 1000 | > 92000 | 
CCc1c(C(=O)Nc2nc3ccccc3s2)cnn1-c1ccccc1 [YA6143, N-(Benzo[d]thiazol-2-yl)-5-ethyl-1-phenyl-1H-pyrazole-4-carboxamide] | 3.6 | > 92000 | 
Cc1ccccc1-n1nnc(C(=O)Nc2cnc3ccccc3n2)c1C [YA6045, 5-Methyl-N-(quinoxalin-2-yl)-1-(o-tolyl)-1H-1,2,3-triazole-4-carboxamide] | 1.8 | > 92000 | 
Cc1ccccc1-n1nnc(C(=O)Nc2ccc3cccnc3n2)c1C [YA6047, 5-Methyl-N-(1,8-naphthyridin-2-yl)-1-(o-tolyl)-1H-1,2,3-triazole-4-carboxamide] | > 1000 | > 92000 | 
Cc1ccccc1-n1nnc(C(=O)Nc2ccc3ccc(Br)cc3n2)c1C [YA1126, N-(7-Bromoquinolin-2-yl)-5-methyl-1-(o-tolyl)-1H-1,2,3-triazole-4-carboxamide] | > 1000 | > 92000 | 
Cc1c(C(=O)Nc2nc3ccccc3s2)nnn1-c1ccccc1C(F)(F)F [YA6089, N-(Benzo[d]thiazol-2-yl)-5-methyl-1-(2-(trifluoromethyl)phenyl)-1H-1,2,3-triazole-4-carboxamide] | 17 | > 92000 | 89
Cc1c(C(=O)Nc2nc3ccccc3s2)nnn1-c1c(Cl)cccc1Cl [YA1066, N-(Benzo[d]thiazol-2-yl)-1-(2,6-dichlorophenyl)-5-methyl-1H-1,2,3-triazole-4-carboxamide] | 19 | > 92000 | 88
O=C(Nc1nc2ccccc2s1)c1csc(-c2ccccc2)n1 [YA6082] | 470 | > 92000 | 70

The next lines start with results.

IC50 [1] [nM] | Structure (SMILES) | CC50 [2] [nM] | inhibition at 1 µM [1] [%]
9.5 | COc1ccccc1-n1ncc(C(=O)Nc2nc3ccccc3s2)c1C [YA7020, N-(Benzo[d]thiazol-2-yl)-1-(2-methoxyphenyl)-5-methyl-1H-pyrazole-4-carboxamide] | > 92000 | 
9.8 | Cc1c(C(=O)Nc2nc3ccccc3s2)cnn1-c1cccc(Cl)c1F [YA4021, N-(Benzo[d]thiazol-2-yl)-1-(3-chloro-2-fluorophenyl)-5-methyl-1H-pyrazole-4-carboxamide] | > 92000 | 
> 1000 | Cc1ccccc1-n1nnc(C(=O)Nc2cc(Br)c3ccccc3n2)c1C [YA6150, N-(4-bromoquinolin-2-yl)-5-methyl-1-(o-tolyl)-1H-1,2,3-triazole-4-carboxamide] | > 92000 | 
> 1000 | Cc1ccccc1-n1nnc(C(=O)Nc2nc3ccc(OC(F)(F)F)cc3s2)c1C [YA4065, 5-Methyl-1-(o-tolyl)-N-(6-(trifluoromethoxy)benzo[d]thiazol-2-yl)-1H-1,2,3-triazole-4-carboxamide] | > 92000 | 16
15 | Cc1ccc2nc(NC(=O)c3nnn(-c4ccccc4C)c3C)sc2c1 [YA4069, 5-Methyl-N-(6-methylbenzo[d]thiazol-2-yl)-1-(o-tolyl)-1H-1,2,3-triazole-4-carboxamide] | > 92000 | 
3.3 | O=C(Nc1nc2ccccc2s1)c1nnn(-c2ccccc2F)c1C(F)(F)F [YA6168, N-(Benzo[d]thiazol-2-yl)-1-(2-fluorophenyl)-5-(trifluoromethyl)-1H-1,2,3-triazole-4-carboxamide] | > 92000 | 91
> 1000 | COc1ccccc1-n1nnc(C(=O)Nc2ccc3ccccc3n2)n1 [YA70034, 2-(2-Methoxyphenyl)-N-(quinolin-2-yl)-2H-tetrazole-5-carboxamide] | > 92000 | 
> 1000 | Cc1c(C(=O)Nc2nc3ccccc3s2)nnn1-c1ccc(Cl)cc1 [YA1074, N-(Benzo[d]thiazol-2-yl)-1-(4-chlorophenyl)-5-methyl-1H-1,2,3-triazole-4-carboxamide] | > 92000 | 18
8.2 | Cc1c(C(=O)Nc2nc3ccccc3s2)cnn1-c1c(F)cccc1Br [YA4017, N-(Benzo[d]thiazol-2-yl)-1-(2-bromo-6-fluorophenyl)-5-methyl-1H-pyrazole-4-carboxamide] | > 92000 | 
5.8 | Cc1c(C(=O)Nc2nc3ccccc3s2)cnn1-c1ccccc1Br [YA4033, N-(Benzo[d]thiazol-2-yl)-1-(2-bromophenyl)-5-methyl-1H-pyrazole-4-carboxamide] | > 92000 | 
> 1000 | Cc1ccccc1-n1nnc(C(=O)Nc2nc3ccc(Br)cc3s2)c1C [YA4059, N-(6-Bromobenzo[d]thiazol-2-yl)-5-methyl-1-(o-tolyl)-1H-1,2,3-triazole-4-carboxamide] | > 92000 | 31
35 | Cc1cccc(Cl)c1-n1nnc(C(=O)Nc2nc3ccccc3s2)c1C [YA1068, N-(Benzo[d]thiazol-2-yl)-1-(2-chloro-6-methylphenyl)-5-methyl-1H-1,2,3-triazole-4-carboxamide] | > 92000 | 80
1.4 | Cc1ccccc1-n1ncc(C(=O)Nc2nc3ccccc3s2)c1C [YA6179, N-(Benzo[d]thiazol-2-yl)-5-methyl-1-(o-tolyl)-1H-pyrazole-4-carboxamide] | > 92000 | 
148 | Cc1ccccc1-n1nnc(C(=O)Nc2ccc3cc(B4OC(C)(C)C(C)(C)O4)ccc3n2)c1C [YA6063] | > 92000 | 
4.7 | Cc1c(C(=O)Nc2nc3ccccc3s2)nnn1-c1cc(F)ccc1F [YA1084, N-(Benzo[d]thiazol-2-yl)-1-(2,5-difluorophenyl)-5-methyl-1H-1,2,3-triazole-4-carboxamide] | > 92000 | 88
126 | Cc1cccc(Br)c1-n1nnc(C(=O)Nc2nc3ccccc3s2)c1C [YA1064, N-(Benzo[d]thiazol-2-yl)-1-(2-bromo-6-methylphenyl)-5-methyl-1H-1,2,3-triazole-4-carboxamide] | > 92000 | 72
> 1000 | COc1ccc2nc(NC(=O)c3nnn(-c4ccccc4C)c3C)sc2c1 [YA4091, N-(6-Methoxybenzo[d]thiazol-2-yl)-5-methyl-1-(o-tolyl)-1H-1,2,3-triazole-4-carboxamide] | > 92000 | 12
7.6 | CC(C)c1c(C(=O)Nc2nc3ccc(F)cc3s2)nnn1-c1ccccc1F [YA6172, N-(6-Fluorobenzo[d]thiazol-2-yl)-1-(2-fluorophenyl)-5-isopropyl-1H-1,2,3-triazole-4-carboxamide] | > 92000 | 98
4.1 | Cc1ccccc1-n1nnc(C(=O)Nc2ccc3ccccc3n2)c1C [FX1128, reference compound] | > 92000 | 
